According to patent US11124516B2, “Pyrrolo[1,2-A]pyrimidinyl carboxamide compounds and their use in the treatment of medical disorders” (Bial—Biotech Investments, Inc., priority 2016, dated 2021):
Values after ≈ are worked out from the molar mass of the structure shown.

Tested on: not listed separately
Assay: Compound solubility in water
Type: physicochemical
Settings: not given

Row | Compound | solubility | Compound Solubility in Water
1 | Cc1c(-c2ccc(F)cc2)cnc2c(C(=O)N[C@@H](C)C3CC3)ccn12 [III-51] | 0.1 µg/mL (≈ 0.296 µM) | 
2 | Cc1cc(C)n2ccc(C(=O)NC(C)C3CCCCC3)c2n1 (stereo not drawn) [III-62] | 5.1 µg/mL (≈ 17 µM) | 
3 | Cc1cc(C)n2ccc(C(=O)NC(C)C3CCCCC3)c2n1 (stereo not drawn) [III-63] |  | 4.2 µg/mL
4 | Cc1cc(C)n2ccc(C(=O)N[C@@H](C)C3CC3)c2n1 [III-64] | 21.7 µg/mL (≈ 84.3 µM) | 
5 | Cc1cc(C)n2ccc(C(=O)N[C@H](C)C3CC3)c2n1 [III-65] | 20.7 µg/mL (≈ 80.4 µM) | 
6 | Cc1nc2c(C(=O)N[C@H]3CC[C@H](OC(C)(C)C)CC3)ccn2c2c1CCC2 [III-70] | 1.5 µg/mL (≈ 4.06 µM) | 
7 | Cc1c2c(nc3c(C(=O)N[C@H]4CC[C@H](OC(C)(C)C)CC4)ccn13)CCC2 [III-71] | 8 µg/mL (≈ 21.7 µM) | 
8 | Cc1nc2c(C(=O)NC(C)(C)C3CC3)ccn2c2c1CCC2 [III-72] | 1.5 µg/mL (≈ 5.04 µM) | 
9 | Cc1c2c(nc3c(C(=O)NC(C)(C)C4CC4)ccn13)CCC2 [III-73] | 0.9 µg/mL (≈ 3.03 µM) | 
10 | COCc1cc(C)n2ccc(C(=O)N[C@H]3CC[C@H](OCC(C)(C)C)CC3)c2n1 [IV-1] | 2.5 µg/mL (≈ 6.45 µM) | 
11 | COCc1cc(C)nc2c(C(=O)N[C@H]3CC[C@H](OCC(C)(C)C)CC3)ccn12 [IV-2] | 4.2 µg/mL (≈ 10.8 µM) | 
12 | COCc1cc(C)nc2c(C(=O)N[C@H]3CC[C@H](OCC(C)C)CC3)ccn12 [IV-3] | 15.9 µg/mL (≈ 42.6 µM) | 

Now from value to compound:

Row | solubility | Compound Solubility in Water | Compound
13 | 1.7 µg/mL (≈ 4.84 µM) |  | Cc1nc2c(C(=O)N[C@@H](C)C3CC3)ccn2c(C)c1-c1ccc(F)cc1 [III-52]
14 | 2.9 µg/mL (≈ 7.75 µM) |  | Cc1cc(-c2cccnc2)nc2c(C(=O)NC(C3CC3)C(F)(F)F)ccn12 (stereo not drawn) [III-55]
15 | 11.6 µg/mL (≈ 28.5 µM) |  | Cc1cc(-c2cccnc2)nc2c(C(=O)N[C@H]3CC[C@H](OC(C)(C)C)CC3)ccn12 [III-56]
16 | 14.9 µg/mL (≈ 38 µM) |  | CCCO[C@H]1CC[C@H](NC(=O)c2ccn3c(C)cc(-c4cccnc4)nc23)CC1 [III-57]
17 | 1.9 µg/mL (≈ 4.67 µM) |  | Cc1cc(-c2cccnc2)nc2c(C(=O)N[C@H]3CC[C@H](OCC(C)C)CC3)ccn12 [III-58]
18 | 1.9 µg/mL (≈ 4.67 µM) |  | CCCCO[C@H]1CC[C@H](NC(=O)c2ccn3c(C)cc(-c4cccnc4)nc23)CC1 [III-59]
19 | 1.3 µg/mL (≈ 3.09 µM) |  | Cc1cc(-c2cccnc2)nc2c(C(=O)N[C@H]3CC[C@H](OCC(C)(C)C)CC3)ccn12 [III-60]
20 | 1.2 µg/mL (≈ 3.41 µM) |  | C#Cc1ccc(NC(=O)c2ccn3c(C)cc(-c4cccnc4)nc23)cc1 [III-61]
21 | 24.8 µg/mL (≈ 96.4 µM) |  | Cc1cc(C)n2ccc(C(=O)NC(=O)C3CC3)c2n1 [III-74]

Target: T1, glucocerebrosidase (Gcase) (Homo sapiens, UniProt P04062)
T1 sequence (P04062 40-536): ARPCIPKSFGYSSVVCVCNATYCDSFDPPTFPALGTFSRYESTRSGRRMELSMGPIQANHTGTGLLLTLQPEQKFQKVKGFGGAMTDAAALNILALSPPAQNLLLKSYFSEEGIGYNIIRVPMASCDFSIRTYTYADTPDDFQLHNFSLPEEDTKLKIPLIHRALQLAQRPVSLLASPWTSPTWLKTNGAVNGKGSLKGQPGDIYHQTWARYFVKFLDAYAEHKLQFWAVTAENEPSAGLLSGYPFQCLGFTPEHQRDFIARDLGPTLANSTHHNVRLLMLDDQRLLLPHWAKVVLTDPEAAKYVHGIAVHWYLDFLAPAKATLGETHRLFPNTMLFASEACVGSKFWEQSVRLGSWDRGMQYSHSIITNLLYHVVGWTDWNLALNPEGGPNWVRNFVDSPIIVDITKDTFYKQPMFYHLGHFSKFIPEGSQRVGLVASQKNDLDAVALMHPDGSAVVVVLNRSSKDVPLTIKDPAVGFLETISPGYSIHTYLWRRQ
Assay: Glucocerebrosidase (Gcase) activation assay, 4-methylumbelliferyl-beta-D-glucopyranoside substrate, fluorescence
Type: biochemical
Settings: 0.25 h, pH 4.7, test compound at 0.1 μM, 10 nM GCase, 100 nM saposin C, read-out: Percent Gcase Activation 0.1 μM Test Compound
Protocol: The ability of exemplary compounds to activate glucocerebrosidase (Gcase) was measured.
A 484 μL aliquot of a 1.0 mg/mL solution of phosphatidylserine (PS) (Sigma P7769) in chloroform was evaporated under a stream of nitrogen for 1 hour. The lipid film was dissolved over 4 minutes of vigorous vortexing in 40 mL of 176 mM K2HPO4/50 mM citric acid (pH 4.7) containing 7.5 μL of triton X-100, resulting in a mixed micellar preparation with a composition of 0.32 mM triton and 0.37 mol % PS. 4-Methylumbelliferyl-beta-D-glucopyranoside (ACROS-337025000) was dissolved in the micellar solution to a final concentration of 2 mM for use as the reaction substrate.
Test compounds were diluted to the desired concentrations with dimethylsulfoxide (DMSO) from 10 mM stocks, and 0.41 μL of the DMSO compound mixture was added to 100 μL of micellar solution containing 10 nM GCase and 100 nM saposin C (Enzo ALX-201-262-C050). Pre-incubation was allowed to occur for 30 minutes at room temperature, after which the reaction was initiated by combining 25 μL of substrate solution with 25 μL of compound/GCase/saposin mixture. The reaction proceeded for 15 minutes at room temperature and was stopped by adding 150 μL of 1M glycine, pH 12.5. The endpoint of the reaction was monitored by measuring fluorescence intensity (excitation: 365 nm; emission: 440 nm) on a SpectraMax i3 instrument (Molecular Devices). Test compounds were screened at 1.0 and 0.1 μM final concentration, and subsequent 8-point dose response curves were obtained using 3-fold dilutions from a maximum final concentration of 5 μM.
For experiments in which the test compound was used at a concentration of 1.0 μM, the symbol “+” indicates less than 30% Gcase activation; the symbol “++” indicates Gcase activation in the range of 30% up to 60%; and the symbol “+++” indicates Gcase activation greater than 60%. For experiments in which the test compound was used at a concentration of 0.1 μM, the symbol “*” indicates less than 10% Gcase activation; the symbol “**” indicates Gcase activation in the range of 10% up to 20%; and the symbol “***” indicates greater than 20% Gcase activation.

Row | Compound | activation at 0.1 µM
22 | Cc1c(-c2ccc(F)cc2)cnc2c(C(=O)N[C@@H](C)C3CC3)ccn12 [III-51] | < 10%
23 | Cc1cc(C)n2ccc(C(=O)NC(C)C3CCCCC3)c2n1 (stereo not drawn) [III-62] | > 20%
24 | Cc1cc(C)n2ccc(C(=O)N[C@@H](C)C3CC3)c2n1 [III-64] | > 20%
25 | Cc1cc(C)n2ccc(C(=O)N[C@H](C)C3CC3)c2n1 [III-65] | < 10%
26 | Cc1nc2c(C(=O)N[C@H]3CC[C@H](OC(C)(C)C)CC3)ccn2c2c1CCC2 [III-70] | < 10%
27 | Cc1c2c(nc3c(C(=O)N[C@H]4CC[C@H](OC(C)(C)C)CC4)ccn13)CCC2 [III-71] | < 10%
28 | Cc1nc2c(C(=O)NC(C)(C)C3CC3)ccn2c2c1CCC2 [III-72] | < 10%
29 | Cc1c2c(nc3c(C(=O)NC(C)(C)C4CC4)ccn13)CCC2 [III-73] | 10 to 20%
30 | COCc1cc(C)n2ccc(C(=O)N[C@H]3CC[C@H](OCC(C)(C)C)CC3)c2n1 [IV-1] | > 20%
31 | COCc1cc(C)nc2c(C(=O)N[C@H]3CC[C@H](OCC(C)(C)C)CC3)ccn12 [IV-2] | > 20%
32 | COCc1cc(C)nc2c(C(=O)N[C@H]3CC[C@H](OCC(C)C)CC3)ccn12 [IV-3] | > 20%

Other lines, results leading:

Row | activation at 0.1 µM | Compound
33 | < 10% | Cc1nc2c(C(=O)N[C@@H](C)C3CC3)ccn2c(C)c1-c1ccc(F)cc1 [III-52]
34 | > 20% | Cc1cc(-c2cccnc2)nc2c(C(=O)NC(C3CC3)C(F)(F)F)ccn12 (stereo not drawn) [III-55]
35 | 10 to 20% | Cc1cc(-c2cccnc2)nc2c(C(=O)N[C@H]3CC[C@H](OC(C)(C)C)CC3)ccn12 [III-56]
36 | 10 to 20% | CCCO[C@H]1CC[C@H](NC(=O)c2ccn3c(C)cc(-c4cccnc4)nc23)CC1 [III-57]
37 | > 20% | Cc1cc(-c2cccnc2)nc2c(C(=O)N[C@H]3CC[C@H](OCC(C)C)CC3)ccn12 [III-58]
38 | > 20% | CCCCO[C@H]1CC[C@H](NC(=O)c2ccn3c(C)cc(-c4cccnc4)nc23)CC1 [III-59]
39 | > 20% | Cc1cc(-c2cccnc2)nc2c(C(=O)N[C@H]3CC[C@H](OCC(C)(C)C)CC3)ccn12 [III-60]
40 | > 20% | C#Cc1ccc(NC(=O)c2ccn3c(C)cc(-c4cccnc4)nc23)cc1 [III-61]
41 | < 10% | Cc1cc(C)n2ccc(C(=O)NC(=O)C3CC3)c2n1 [III-74]

Same assay, conditions: 0.25 h, pH 4.7, test compound at 1.0 μM, 10 nM GCase, 100 nM saposin C, read-out: Percent Gcase Activation 1 μM Test Compound

Row | Compound | activation at 1 µM
42 | Cc1c(-c2ccc(F)cc2)cnc2c(C(=O)N[C@@H](C)C3CC3)ccn12 [III-51] | < 30%
43 | Cc1cc(C)n2ccc(C(=O)NC(C)C3CCCCC3)c2n1 (stereo not drawn) [III-62] | > 60%
44 | Cc1cc(C)n2ccc(C(=O)N[C@@H](C)C3CC3)c2n1 [III-64] | > 60%
45 | Cc1cc(C)n2ccc(C(=O)N[C@H](C)C3CC3)c2n1 [III-65] | 30 to 60%
46 | Cc1nc2c(C(=O)N[C@H]3CC[C@H](OC(C)(C)C)CC3)ccn2c2c1CCC2 [III-70] | < 30%
47 | Cc1c2c(nc3c(C(=O)N[C@H]4CC[C@H](OC(C)(C)C)CC4)ccn13)CCC2 [III-71] | 30 to 60%
48 | Cc1nc2c(C(=O)NC(C)(C)C3CC3)ccn2c2c1CCC2 [III-72] | > 60%
49 | Cc1c2c(nc3c(C(=O)NC(C)(C)C4CC4)ccn13)CCC2 [III-73] | > 60%
50 | COCc1cc(C)n2ccc(C(=O)N[C@H]3CC[C@H](OCC(C)(C)C)CC3)c2n1 [IV-1] | > 60%
51 | COCc1cc(C)nc2c(C(=O)N[C@H]3CC[C@H](OCC(C)(C)C)CC3)ccn12 [IV-2] | > 60%
52 | COCc1cc(C)nc2c(C(=O)N[C@H]3CC[C@H](OCC(C)C)CC3)ccn12 [IV-3] | > 60%

Results, then the compound that gave them:

Row | activation at 1 µM | Compound
53 | < 30% | Cc1nc2c(C(=O)N[C@@H](C)C3CC3)ccn2c(C)c1-c1ccc(F)cc1 [III-52]
54 | > 60% | Cc1cc(-c2cccnc2)nc2c(C(=O)NC(C3CC3)C(F)(F)F)ccn12 (stereo not drawn) [III-55]
55 | > 60% | Cc1cc(-c2cccnc2)nc2c(C(=O)N[C@H]3CC[C@H](OC(C)(C)C)CC3)ccn12 [III-56]
56 | > 60% | CCCO[C@H]1CC[C@H](NC(=O)c2ccn3c(C)cc(-c4cccnc4)nc23)CC1 [III-57]
57 | > 60% | Cc1cc(-c2cccnc2)nc2c(C(=O)N[C@H]3CC[C@H](OCC(C)C)CC3)ccn12 [III-58]
58 | > 60% | CCCCO[C@H]1CC[C@H](NC(=O)c2ccn3c(C)cc(-c4cccnc4)nc23)CC1 [III-59]
59 | > 60% | Cc1cc(-c2cccnc2)nc2c(C(=O)N[C@H]3CC[C@H](OCC(C)(C)C)CC3)ccn12 [III-60]
60 | > 60% | C#Cc1ccc(NC(=O)c2ccn3c(C)cc(-c4cccnc4)nc23)cc1 [III-61]
61 | < 30% | Cc1cc(C)n2ccc(C(=O)NC(=O)C3CC3)c2n1 [III-74]

Same assay, conditions: test compound at 0.1 μM; 10 nM GCase, 100 nM saposin C, pH 4.7

Row | Percent Gcase Activation 0.1 μM Test Compound | Compound
62 | *** (greater than 20% Gcase activation) | Cc1cc(C)n2ccc(C(=O)NC(C)C3CCCCC3)c2n1 (stereo not drawn) [III-63]

Same assay, conditions: test compound at 1.0 μM; 10 nM GCase, 100 nM saposin C, pH 4.7

Row | Percent Gcase Activation 1 μM Test Compound | Compound
63 | +++ (Gcase activation greater than 60%) | Cc1cc(C)n2ccc(C(=O)NC(C)C3CCCCC3)c2n1 (stereo not drawn) [III-63]
